From US20230027854A1, “ISOXAZOLE DERIVATIVES TARGETING TACC3 AS ANTICANCER AGENTS” (A2A Pharmaceuticals, inc., priority 2019, published 2023)
pIC50: −log10 of the molar value.

system: JIMT-1 cells; experiment: JIMT-1 cell growth inhibition / cell viability (SRB assay); format: cell-based; conditions: Homo sapiens; JIMT-1 cells; read-out: IC50
Procedure: The ability of the compounds of the present disclosure to treat TACC3-mediated cancers, or associated symptoms or complications thereof, was determined using the following procedures. The compounds of the present disclosure were tested for their activity against cell death induction using a JIMT-1 cell line, which was a cell line having high level of TACC3. The concentration of each compound that was required for half-maximal inhibition of cell proliferation was calculated by a GraphPad Prism (GraphPad Software).

`COc1ccc(-c2cc(Nc3ccnc(N4CCC(F)CC4)n3)on2)cc1` [Compound 38, N-(2-(4-fluoropiperidin-1-yl)pyrimidin-4-yl)-3-(4-methoxyphenyl)isoxazol-5-amine] was tested. Which pIC50 did it give?
The pIC50 was 6.89.

`COc1ccc(-c2cc(Nc3ccnc(N4CCCC4)n3)on2)cc1F` [Compound 67, 3-(3-fluoro-4-methoxyphenyl)-N-(2-(pyrrolidin-1-yl)pyrimidin-4-yl)isoxazol-5-amine] was tested. Which pIC50 did it give?
Its pIC50 is 7.31.

`COc1ccc(-c2cc(Nc3cc(C)nc(N4CCC(F)CC4)n3)on2)cc1` [Compound 61, N-(2-(4-fluoropiperidin-1-yl)-6-methylpyrimidin-4-yl)-3-(4-methoxyphenyl)isoxazol-5-amine] was tested. Which pIC50 did it give?
Its pIC50 is 6.00.

With `CCCOc1ccc(-c2cc(Nc3ccnc(N4CCOCC4)n3)on2)cc1` [Compound 10, N-(2-morpholinopyrimidin-4-yl)-3-(4-propoxyphenyl)isoxazol-5-amine] as the compound, how does the pIC50 read?
The pIC50 was less than 5.00.

`COc1ccc(-c2cc(Nc3ccnc(N4CCOCC4)n3)on2)cc1F` [Compound 22, 3-(3-fluoro-4-methoxyphenyl)-N-(2-morpholinopyrimidin-4-yl)isoxazol-5-amine] was tested. Which pIC50 did it give?
The pIC50 was 7.89.

`COc1cccc(-c2cc(Nc3ccnc(N4CCOCC4)n3)on2)c1` [Compound 6, 3-(3-methoxyphenyl)-N-(2-morpholinopyrimidin-4-yl)isoxazol-5-amine] was tested. Which pIC50 did it give?
Its pIC50 is 5.46.

`COc1ccc(-c2cc(Nc3ccnc(N4CCC(C(F)(F)F)CC4)n3)on2)cc1` [Compound 44, 3-(4-methoxyphenyl)-N-(2-(4-(trifluoromethyl)piperidin-1-yl)pyrimidin-4-yl)isoxazol-5-amine] was tested. Which pIC50 did it give?
The pIC50 was 7.25.

How did the pIC50 turn out when `COc1ccccc1-c1cc(Nc2ccnc(N3CCOCC3)n2)on1` [Compound 7, 3-(2-methoxyphenyl)-N-(2-morpholinopyrimidin-4-yl)isoxazol-5-amine] was run?
Its pIC50 is 5.08.

How did the pIC50 turn out when `COc1ccc(-c2cc(Nc3ccnc(N4CCS(=O)(=O)CC4)n3)on2)cc1` [Compound 41, 4-(4-((3-(4-methoxyphenyl)isoxazol-5-yl)amino)pyrimidin-2-yl)thiomorpholine 1,1-dioxide] was run?
The pIC50 was less than 5.00.

How did the pIC50 turn out when `FC(F)(F)c1ccc(-c2cc(Nc3ccnc(N4CCOCC4)n3)on2)cc1` [Compound 16, N-(2-morpholinopyrimidin-4-yl)-3-(4-(trifluoromethyl)phenyl)isoxazol-5-amine] was run?
The pIC50 was less than 5.00.

`COc1ccc(-c2cc(Nc3ccnc(N4CCC(CCO)CC4)n3)on2)cc1` [Compound 46, 2-(1-(4-((3-(4-methoxyphenyl)isoxazol-5-yl)amino)pyrimidin-2-yl)piperidin-4-yl)ethan-1-ol] was tested. Which pIC50 did it give?
Its pIC50 is 5.40.

How did the pIC50 turn out when `Fc1ccc(-c2cc(Nc3ccnc(N4CCOCC4)n3)on2)cc1` [Compound 11, 3-(4-fluorophenyl)-N-(2-morpholinopyrimidin-4-yl)isoxazol-5-amine] was run?
The pIC50 was less than 5.00.

With `c1ccc(COc2ccc(-c3cc(Nc4ccnc(N5CCOCC5)n4)on3)cc2)cc1` [Compound 32, 3-(4-(benzyloxy)phenyl)-N-(2-morpholinopyrimidin-4-yl)isoxazol-5-amine] as the compound, how does the pIC50 read?
Its pIC50 is less than 5.00.

How did the pIC50 turn out when `COc1ccc(-c2cc(Nc3ccnc(N4CCOCC4)n3)on2)cn1` [Compound 27, 3-(6-methoxypyridin-3-yl)-N-(2-morpholinopyrimidin-4-yl)isoxazol-5-amine] was run?
Its pIC50 is 5.14.

How did the pIC50 turn out when `COc1ccc(-c2cc(Nc3ccnc(N4CCN(C)CC4)n3)on2)cc1` [Compound 48, 3-(4-methoxyphenyl)-N-(2-(4-methylpiperazin-1-yl)pyrimidin-4-yl)isoxazol-5-amine] was run?
The pIC50 was 5.81.

How did the pIC50 turn out when `CC(C)c1ccc(-c2cc(Nc3ccnc(N4CCOCC4)n3)on2)cc1` [Compound 15, 3-(4-isopropylphenyl)-N-(2-morpholinopyrimidin-4-yl)isoxazol-5-amine] was run?
The pIC50 was 5.44.

With `Oc1ccc(-c2cc(Nc3ccnc(N4CCOCC4)n3)on2)cc1` [Compound 30, 4-(5-((2-morpholinopyrimidin-4-yl)amino)isoxazol-3-yl)phenol] as the compound, how does the pIC50 read?
Its pIC50 is less than 5.00.

`CCc1ccc(-c2cc(Nc3ccnc(N4CCOCC4)n3)on2)cc1` [Compound 14, 3-(4-ethylphenyl)-N-(2-morpholinopyrimidin-4-yl)isoxazol-5-amine] was tested. Which pIC50 did it give?
The pIC50 was 6.59.

With `COc1ccc(-c2cc(Nc3ccnc(N4CCN(CCO)CC4)n3)on2)cc1` [Compound 47, 2-(4-(4-((3-(4-methoxyphenyl)isoxazol-5-yl)amino)pyrimidin-2-yl)piperazin-1-yl)ethan-1-ol] as the compound, how does the pIC50 read?
Its pIC50 is less than 5.00.

How did the pIC50 turn out when `COc1ccc(-c2cc(Nc3ccnc(N4CCSCC4)n3)on2)cc1` [Compound 40, 3-(4-methoxyphenyl)-N-(2-thiomorpholinopyrimidin-4-yl)isoxazol-5-amine] was run?
The pIC50 was 6.95.

`FC(F)(F)Oc1ccc(-c2cc(Nc3ccnc(N4CCOCC4)n3)on2)cc1` [Compound 19, N-(2-morpholinopyrimidin-4-yl)-3-(4-(trifluoromethoxy)phenyl)isoxazol-5-amine] was tested. Which pIC50 did it give?
Its pIC50 is less than 5.00.

With `COc1ccc(-c2cc(Nc3ccnc(N4CCOCC4)n3)on2)cc1OC` [Compound 24, 3-(3,4-dimethoxyphenyl)-N-(2-morpholinopyrimidin-4-yl)isoxazol-5-amine] as the compound, how does the pIC50 read?
Its pIC50 is 6.14.

How did the pIC50 turn out when `CN(C)c1ccc(-c2cc(Nc3ccnc(N4CCOCC4)n3)on2)cc1` [Compound 21, 3-(4-(dimethylamino)phenyl)-N-(2-morpholinopyrimidin-4-yl)isoxazol-5-amine] was run?
The pIC50 was 6.92.

How did the pIC50 turn out when `COc1ccc(-c2cc(Nc3ccnc(N4C[C@H]5C[C@@H]4CO5)n3)on2)cc1` [Compound 37, N-(2-((1R,4R)-2-oxa-5-azabicyclo[2.2.1]heptan-5-yl)pyrimidin-4-yl)-3-(4-methoxyphenyl)isoxazol-5-amine] was run?
Its pIC50 is 6.32.

`COc1ccc(-c2cc(Nc3ccnc(N4C[C@@H](C)O[C@@H](C)C4)n3)on2)cc1` [Compound 33, N-(2-((2R,6S)-2,6-dimethylmorpholino)pyrimidin-4-yl)-3-(4-methoxyphenyl)isoxazol-5-amine] was tested. Which pIC50 did it give?
Its pIC50 is 6.64.

`COc1ccc(-c2cc(Nc3ccnc(N4CCC(C(=O)O)CC4)n3)on2)cc1` [Compound 51, 1-(4-((3-(4-methoxyphenyl)isoxazol-5-yl)amino)pyrimidin-2-yl)piperidine-4-carboxylic acid] was tested. Which pIC50 did it give?
The pIC50 was less than 5.00.

With `COc1ccc(-c2cc(N(C)c3ccnc(N4CCOCC4)n3)on2)cc1` [Compound 63, 3-(4-methoxyphenyl)-N-methyl-N-(2-morpholinopyrimidin-4-yl)isoxazol-5-amine] as the compound, how does the pIC50 read?
Its pIC50 is 6.80.

`COc1ccc(-c2cc(Nc3ccnc(N4CCOCC4)n3)on2)cc1Cl` [Compound 23, 3-(3-chloro-4-methoxyphenyl)-N-(2-morpholinopyrimidin-4-yl)isoxazol-5-amine] was tested. Which pIC50 did it give?
The pIC50 was 6.32.

How did the pIC50 turn out when `c1ccc(-c2cc(Nc3ccnc(N4CCOCC4)n3)on2)cc1` [Compound 8, N-(2-morpholinopyrimidin-4-yl)-3-phenylisoxazol-5-amine] was run?
Its pIC50 is less than 5.00.

How did the pIC50 turn out when `COc1ccc(-c2cc(Nc3ccnc(N4CCC(C)CC4)n3)on2)cc1` [Compound 43, 3-(4-methoxyphenyl)-N-(2-(4-methylpiperidin-1-yl)pyrimidin-4-yl)isoxazol-5-amine] was run?
The pIC50 was 6.69.

With `CCOC(=O)C1CCN(c2nccc(Nc3cc(-c4ccc(OC)cc4)no3)n2)CC1` [Compound 50, Ethyl 1-(4-((3-(4-methoxyphenyl)isoxazol-5-yl)amino)pyrimidin-2-yl)piperidine-4-carboxylate] as the compound, how does the pIC50 read?
The pIC50 was less than 5.00.

How did the pIC50 turn out when `CN(C)c1ccc(-c2cc(Nc3ccnc(N4CCC(F)CC4)n3)on2)cc1` [Compound 64, 3-(4-(dimethylamino)phenyl)-N-(2-(4-fluoropiperidin-1-yl)pyrimidin-4-yl)isoxazol-5-amine] was run?
Its pIC50 is 6.80.

`COc1ccc(-c2cc(Nc3ccnc(N4CCC(F)(F)CC4)n3)on2)cc1` [Compound 39, N-(2-(4,4-difluoropiperidin-1-yl)pyrimidin-4-yl)-3-(4-methoxyphenyl)isoxazol-5-amine] was tested. Which pIC50 did it give?
The pIC50 was 6.43.

system: JIMT-1 cells; experiment: Western blot of mitotic arrest, DNA damage and apoptosis markers; format: cell-based, human; conditions: 24 hours, dose response
Procedure: JIMT-1, MDA-MB-436, MDA-MB-157 and BT-474 T-DM1R cell lines were tested with respect to their response to these three drugs. […] Although higher KHS101 doses was included, which were used by others (Campo & Breuer, 2018), an induction of these markers was only observed at very high doses.

`CC(C)CNc1ccnc(NCc2csc(-c3ccccc3)n2)n1` [KHS101, reference compound] was tested. Which “induction of mitotic arrest, DNA damage and apoptosis markers” value did it give?
Its value is “considerably higher doses”.
